The values below are quoted from earlier work in patent US8859001B2, “Fenoldopam formulations and pro-drug derivatives” (priority 2007, dated 2014).

As a reminder, the solubility is the dissolved amount per volume that the medium holds.

Each structure is given as a SMILES string. Structures can show the parent of a compound that is named as a salt. Where two headings read alike, the source gives them in different places.

In data set [1] the test system is mice. The conditions noted are these: mouse, in vivo, po.
Data set [2] concerns patients. The conditions noted are these: clinical use.
Data set [3] has as its system human lymphoma and leukemia lines (Jurkat, HuT-78, K-562, Daudi, Raji). To be noted: for effectiveness in killing lymphoma and leukemia: selective dopamine D1/5 receptor agonists tested.
For data set [4] the following is noted: IV infusion.
The test system of data set [5] is β adrenoceptors.
Data set [6] relates to α2-adrenoceptors.
Data set [7] deals with muscarinic receptors.
Data set [8] has as its system D2-like receptors.
In data set [9] the test system is TCR-activated human normal peripheral T-cells.
Data set [10] has as its system resting (i.e., not TCR-activated) human normal peripheral T-cells. To be noted: in vitro.
For data set [11], the system named is α1 adrenoceptors.
Data set [12] has as its system 5HT1 receptors.
For data set [13], the system named is 5HT2 receptors.

As for `CCOC(=O)C(C)O` (stereo not shown) [Ethyl lactate, 2-hydroxypropanoic acid ethyl ester], in data set [1], the LD50 entry is recorded as “higher than 5 g/kg”.

With `Oc1ccc(C2CNCCc3c2cc(O)c(O)c3Cl)cc1` (racemic) [Fenoldopam mesylate, 6-chloro-2,3,4,5-tetrahydro-1-(4-hydroxyphenyl)-1H-3-benzazepine-7,8-diol, methanesulfonate], the “patients reporting the major side effects (headache, flushing and nausea)” value in [2] is at most 10%. For the same compound, the solubility is, setting by setting: (HCl/KCl buffer pH 1.5) 9100 µg/mL; (buffer pH 6.8) 130 µg/mL; (pH 7.5) 60 µg/mL. Also, the solubility in ethanol result (ethanol) is on record as “sparingly soluble”. In addition, the solubility in methanol result (methanol) is reported as “sparingly soluble”. Also, the “solubility in propylene glycol” value (propylene glycol) was “soluble”. Where the note is “water”, the solubility in water result was “sparingly soluble”. Besides, the “time to start of measurable cell death after exposure” value in data set [3] is 1 to 60 min. In data set [3] (1 mM-0.01 mM fenoldopam mesylate, five lymphoma/leukemia lines), the “death of cancer cells on in vitro exposure” value is “death of all, or the vast majority of, these cancer cells”. The “death of cells (number of live and dead cells)” value was “over 98%” in [3] (cancer cells, after 72 hr, concentrations within 0.1 mM-0.1 nM) and “over 98%” in data set [9] (normal TCR-activated T-cells, after 72 hr, concentrations within 0.1 mM-0.1 nM). In data set [4], the “half life T1/2” value is recorded as about 5 min. Moreover, the affinity entry in data set [5] is on record as “no significant affinity”; in data set [6], “moderate affinity”; in [7], “no significant affinity”; in [8] it was “no significant affinity”; in data set [11] it was “no significant affinity”; in data set [12] it was “no significant affinity”. Also, the affinity result in data set [13] is recorded as “no significant affinity”. For the same compound, the “killing of TCR-activated T-cells” value in data set [9] (in vitro) was “kills potently a substantial proportion”. The “effect on resting T-cells” value in data set [10] is “hardly affecting”.

For `Cl.NC[C@@H]1O[C@H](c2ccccc2)Cc2c1ccc(O)c2O` (racemic) [A 68930 hydrochloride, cis-(±)-1-(aminomethyl)-3,4-dihydro-3-phenyl-1H-2-benzopyran-5,6-diol hydrochloride], in [3], the “effectiveness in killing lymphoma and leukemia” value is “effective in killing lymphoma and leukemia”.

With `Cl.NC[C@@H]1O[C@H](C23CC4CC(CC(C4)C2)C3)Cc2c1ccc(O)c2O` [A 77636 hydrochloride, (1R-cis)-1-(aminomethyl)-3,4-dihydro-3-tricyclo[3.3.1.13,7]dec-1-yl-[1H]-2-benzopyran-5,6-diol hydrochloride], in data set [3] (compared among dopamine receptor agonists), the “relative effectiveness as cancer cell killer” value is listed as “the most effective cancer killers”. Besides, the “effectiveness in killing lymphoma and leukemia” value in data set [3] was “effective in killing lymphoma and leukemia”. Besides, the “relative effectiveness as killer of TCR-activated T-cells” value in [9] (compared among highly selective D1R agonists) was “the most effective killers of TCR-activated T-cells”.

With `Br.Oc1cc2c(cc1O)C(c1ccccc1)CNCC2` (racemic) [SKF 38393 hydrobromide, (±)-1-phenyl-2,3,4,5-tetrahydro-(1H)-3-benzazepine-7,8-diol hydrobromide], the “effectiveness in killing lymphoma and leukemia” value in data set [3] is “effective in killing lymphoma and leukemia”.
